Experimental data from ChEMBL document CHEMBL2424644, “Synthesis and antiproliferative evaluation of novel benzoimidazole-contained oxazole-bridged analogs of combretastatin A-4” (Eur J Med Chem, 2013).

How the values were obtained:
Format in all cases: functional, cell-based
HT-29 = assay: Cytotoxicity against human HT-29 cells assessed as growth inhibition after 72 hrs by MTT assay; details: HT-29, 72 h
MX1 [1] = assay: Cytotoxicity against taxol-resistant human MX1 cells assessed as growth inhibition after 72 hrs by MTT assay; details: MX1, 72 h
KB [2] = assay: Cytotoxicity against human KB cells assessed as growth inhibition after 72 hrs by MTT assay
MX1 [3] = assay: Cytotoxicity against human MX1 cells assessed as growth inhibition after 72 hrs by MTT assay; details: MX1, 72 h
KB [4] = assay: Cytotoxicity against vincristine-resistant human KB cells assessed as growth inhibition after 72 hrs by MTT assay
MCF7 = assay: Cytotoxicity against human MCF7 cells assessed as growth inhibition after 72 hrs by MTT assay; details: MCF7, 72 h
HepG2 = assay: Cytotoxicity against human HepG2 cells assessed as growth inhibition after 72 hrs by MTT assay; details: HepG2, 72 h
BXPC-3 = assay: Cytotoxicity against human BxPC3 cells assessed as growth inhibition after 72 hrs by MTT assay; details: BXPC-3, 72 h
A549 = assay: Cytotoxicity against human A549 cells assessed as growth inhibition after 72 hrs by MTT assay; details: A549, 72 h

| SMILES | IC50 (HT-29) | IC50 (MX1 [1]) | IC50 (KB [2]) | IC50 (MX1 [3]) | IC50 (KB [4]) | IC50 (MCF7) | IC50 (HepG2) | IC50 (BXPC-3) | IC50 (A549) |
| --- | --- | --- | --- | --- | --- | --- | --- | --- | --- |
| COc1cc(-c2ncoc2-c2ccc(OC)c3ncn(CCCO)c23)cc(OC)c1OC | 290 nM | > 10000 nM | 346 nM | 3780 nM | > 10000 nM | 500 nM | 310 nM | – | – |
| COc1cc(-c2ncoc2-c2ccc(OC)c3c2ncn3CCCO)cc(OC)c1OC | 2220 nM | 21100 nM | 406 nM | > 10000 nM | > 10000 nM | 2110 nM | 410 nM | – | – |
| COc1cc(-c2ncoc2-c2ccc(OC)c3c2ncn3C)cc(OC)c1OC | 14 nM | 12800 nM | 41 nM | 334 nM | 27 nM | 39 nM | 29 nM | 56 nM | 9.6 nM |
| COC(=O)c1sccc1S(=O)(=O)n1cnc2c(-c3ocnc3-c3cc(OC)c(OC)c(OC)c3)ccc(OC)c21 | 163 nM | – | – | – | – | 435 nM | 134 nM | 941 nM | 2510 nM |
| CCOC(=O)Cn1cnc2c(-c3ocnc3-c3cc(OC)c(OC)c(OC)c3)ccc(OC)c21 | > 500 nM | – | – | – | – | > 500 nM | > 500 nM | > 500 nM | > 500 nM |
| COC(=O)n1cnc2c(-c3ocnc3-c3cc(OC)c(OC)c(OC)c3)ccc(OC)c21 | 11 nM | 4860 nM | 107 nM | 241 nM | 53 nM | 47 nM | 25 nM | 45 nM | 3 nM |
| COc1cc(-c2ncoc2-c2ccc(OC)c3ncn(C)c23)cc(OC)c1OC | 52 nM | – | – | – | – | 41 nM | 200 nM | 220 nM | 37 nM |
| COc1ccc(/C=C\c2cc(OC)c(OC)c(OC)c2)cc1O [COMBRETASTATIN A4] | – | 71 nM | 8 nM | 52 nM | 6 nM | 220 nM | – | < 50 nM | – |
| COc1cc(-c2ncoc2-c2ccc(OC)c3c2ncn3CC(=O)O)cc(OC)c1OC | > 5000 nM | – | – | – | – | > 5000 nM | > 5000 nM | > 5000 nM | > 5000 nM |
| COC(=O)n1cnc2c(OC)ccc(-c3ocnc3-c3cc(OC)c(OC)c(OC)c3)c21 | 11 nM | 565 nM | 27 nM | 393 nM | 70 nM | 17 nM | 20 nM | 42 nM | 3.8 nM |
